Results published in patent publication US7781580B2, “Stilbene derivatives as new cancer therapeutic agents” (Virginia Commonwealth University, priority 2007, dated 2010).
Where a name gives a salt, the structure may show the parent alone. Read-outs that look alike come from different tables or passages of the source.

Legend:
[1] = water solubility of stilbene and carbamate prodrug (salts and free base); assay type: physicochemical; conditions: for solubility: water, 20 °C, 20° C.
Experimental: Stilbene prodrugs may be made by attaching to a stilbene derivative of interest (e.g. a stilbene derivative with anti-tumor activity), chemical groups (or moieties) that render the stilbene derivative more water soluble than before such a modification is carried out. By “water soluble” we mean that more than 20 mg compound can be fully dissolved in 1 mL of water. Further, the chemical groups that are attached to the stilbene derivative to make the derivative water soluble are labile (i.e. removable) in that, upon exposure to in vitro or in vivo hydrolyzing conditions, the chemical groups are removed or dissociated from the stilbene derivative by hydrolysis, releasing the active, anti-tumor form of the stilbene derivative. The chemical groups which are attached may themselves be biologically active, and are, at least, not biologically injurious to cells or mammals. […] As illustrated, morfolinoethyl-urea, morfolinoethyl-carbamate and triethylene glycol (TEG) groups (5a, 5b, 5c, respectively) may be used for this purpose.

[2] = system: MiaPaCa2 pancreatic cancer cells; experiment: Alamar Blue cell growth inhibition, MiaPaCa2; assay type: cell-based; conditions: Homo sapiens, MIA PaCa-2; MiaPaCa2
Experimental: (§1) Various cancer cell lines were grown in 96-well plates for drug sensitivity assays. Once cells achieved 50% confluence, the incubation media was changed to the same cell growth media with different concentrations of the tested compounds or vehicle alone. Cells were then incubated for 48 hours before the cell growth inhibition study. To determine the degree of cell growth inhibition, 1/10 volume of Alamar Blue™ solution was added to each well and optical density (OD) at 570 and 600 nm was determined. The percentage of growth inhibition was calculated according to the manufacturer's formula as follows: The percentage of growth is [(117216×A570)−(80586×A600)]/[(117216×A^o570)−(80586×A^o600)]×100. In this formula, A570 is the absorbance of the treated samples at 570 nm; A600 is the absorbance of the treated samples at 600 nm; A^o570 is the absorbance of the […] samples at 570 nm; and A^o600 is the absorbance of the untreated samples at 600 nm. The two constants, 117216 and 80586, are the extinction coefficients of Alamar Blue™ at 570 and 600 nm respectively. Each concentration was repeated in triplicate to minimize the error.
(§2) We first tested the cytotoxic effect of various stilbene derivatives for their in vitro efficacy of suppressing tumor cell proliferation. Cells were first plated in 96-well plates at 50% confluence and treated with 0, 0.01, 0.03, 0.1, 0.3, 1.0, 3.0, 10 μM concentrations of stilbene derivatives for 48 hours in triplicate. Alamar Blue™ reagent was added into each well at 1/10 volume and incubated for 2 hours before quantification of the absorbance at 570 and 600 nm.

[3] = system: SNU423 hepatocellular carcinoma cells; experiment: Alamar Blue cell growth inhibition, SNU423; assay type: cell-based
Method in brief: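 Cells at 50% confluence were treated for 48 h in triplicate with 0-10 μM compound or 0.1% DMSO vehicle. Alamar Blue was added at 1/10 volume for 2 h, and absorbance at 570 and 600 nm gave % growth via the manufacturer's extinction-coefficient formula relative to vehicle controls.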

[4] = system: UCI101 ovarian cancer cells; experiment: Alamar Blue cell growth inhibition, UCI101; assay type: cell-based
Method in brief: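 UCI101 cells at 50% confluence treated 48 h in triplicate with compound (0–10 μM series) or 0.1% DMSO vehicle as 100% control. Alamar Blue added at 1/10 volume for 2 h; absorbance read at 570 and 600 nm, percent growth inhibition from the manufacturer's formula.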

[5] = system: UCI101 ovarian cancer cells; experiment: Western blot of signal transduction events, UCI101; assay type: cell-based
Method in brief: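 UCI101 cells exposed to 0.1 μM compound for 0, 4, 8, 16 and 36 h, then harvested and analysed by Western blot. Probes covered G2-M regulators Cdc2, Cdc25c and BubR1, plus Akt phosphorylation.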

[6] = system: MDA-MB231 breast cancer cells; experiment: Alamar Blue cell growth inhibition, MDA-MB231; assay type: cell-based; conditions: Homo sapiens, MDA-MB-231; MDA-MB231
Experimental: Cell growth was measured by Alamar Blue™ staining and the percentage of cell growth inhibition was calculated and compared with control cells that were treated with 0.1% DMSO, the vehicles for the stilbene compounds.
as §1, §2

animal toxicity of 13a = conditions: 50 mg/kg
[7] = system: SKOV3 ovarian cancer cells; experiment: Alamar Blue cell growth inhibition, SKOV3; assay type: cell-based
Method in brief: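 SKOV3 cells at 50% confluence were treated 48 h with compounds, against 0.1% DMSO vehicle controls. Growth was read by Alamar Blue absorbance at 570 and 600 nm, with % growth inhibition from the manufacturer's extinction-coefficient formula. Each concentration was run in triplicate.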

UCI101 cells [8] = experiment: cell cycle analysis (propidium iodide, FACScan), UCI101; assay type: cell-based
Experimental: Cells were stained with propidium iodide and analyzed with FACScan. Both 5b at 3 μM and stilbene 4a at 30 nM induce a subG0/1 population that represents the dead population. At higher concentrations of either compound, nearly all cells are dead.
(a) In vitro sensitivity of UCI101 cells toward three potential stilbene prodrugs, 5a-c, was tested in 96-well plates using Alamar Blue™ assays to determine cell growth inhibition. […] (b) 5b induces cell cycle change and apoptosis in UCI101 cells. […] A subG0/1 population, representing apoptotic cells, appeared along with a decrease of the G1/G2 ratio after cells were treated with 3 μM 5b. […] (c) Cells treated with stilbene 4a and 5b were stained with phospho-histone 3B, a mitotic marker. The positive signals of phospho-histone 3B were shown in green and nuclei were stained with DAPI in blue. […] (d) In vivo efficacy of 5b compared with stilbene 4a. Nude mice were injected with UCI101 ovarian cancer cells and treated with 7 doses of 5b,c or stilbene 4a every 2-3 days. Tumor volume was calculated and plotted against days.

[9] = system: UCI101 ovarian cancer cells (xenograft); experiment: UCI101 xenograft in nude mice; assay type: in vivo
Experimental: (§3) (a) In vitro sensitivity of UCI101 cells toward three potential stilbene prodrugs, 5a-c, was tested in 96-well plates using Alamar Blue™ assays to determine cell growth inhibition. […] (b) 5b induces cell cycle change and apoptosis in UCI101 cells. Cells were incubated with 5b at 1, 3, 10 μM for 16 hours followed by PI staining and flow cytometry analysis. A subG0/1 population, representing apoptotic cells, appeared along with a decrease of the G1/G2 ratio after cells were treated with 3 μM 5b. Higher concentration (10 μM) of 5b completely killed cells, as was the case with stilbene 4a at […]. (c) Cells treated with stilbene 4a and 5b were stained with phospho-histone 3B, a mitotic marker. The positive signals of phospho-histone 3B were shown in green and nuclei were stained with DAPI in blue. […] (d) In vivo efficacy of 5b compared with stilbene 4a. Nude mice were injected with UCI101 ovarian cancer cells and treated with 7 doses of 5b,c or stilbene 4a every 2-3 days. Tumor volume was calculated and plotted against days.
We next tested whether 5b could be converted into stilbene 4a in circulation. […] Blood was collected at 20, 60 and 240 min after injection for spot check of stilbene 4a level in serum. […] The in vivo efficacy of 5b and 5c was compared to stilbene 4a in a pilot study using 5 mice in each group.

MDA-MB231 cells = experiment: immunofluorescent staining of tubulin, MDA-MB231; assay type: cell-based; conditions: CA4 10 nM, stilbene 4a 100 nM, vincristine 100 nM, 5b 3 μM; 16 hours
Source text: Nuclei were stained with 4′,6-diamidino-2-phenylindole (DAPI). Control cells show the reticular pattern of the microtubule network.

UCI101 cells [10] = experiment: immunofluorescent staining of tubulin, UCI101; assay type: cell-based; conditions: CA4 10 nM, stilbene 4a 100 nM, 5b 3 μM; 16 hours
Source text: Nuclei were stained with DAPI.

[11] = preliminary toxicity and serum conversion of 5b; assay type: in vivo, mice
Source text: We next tested whether 5b could be converted into stilbene 4a in circulation. […] The in vivo efficacy of 5b and 5c was compared to stilbene 4a in a pilot study using 5 mice in each group.

UCI101 cells [12] = experiment: phospho-histone 3B mitotic marker staining; assay type: cell-based
Experimental: as §3
The in vitro efficacy of these three compounds was tested in UCI101 cells in 96-well plate format and stained with Alamar blue™, The growth suppression was calculated as was done similarly to other test compounds. […] A dose response was then performed with various concentrations of 5b in vitro. […]

## COc1cc(/C=C\c2ccc3c(ccn3C)c2)cc(OC)c1 [13a, (Z)-5-[2-(3,5-Dimethoxy-phenyl)-vinyl]-1-methyl-1H-indole]
[1]
  water solubility (in words): poor water solubility
[2]
  IC50: 10 nM
[3]; Homo sapiens, SNU-423, 48 h, read-out: IC50 (50% growth inhibition), SNU423, 48 hours
  IC50: 10 nM
[3]; SNU423, 48 hours
  effective concentration, blocking cell proliferation: 0.03 µM
[4]; UCI101, 48 hours
  relative potency / activity: about equal in their potency
[5]; 0.1 μM
  phosphorylation of Stat3: more pronounced
[5]; 36 hours
  phosphorylation of Chk1: do not cause more phosphorylation of Chk1
[6]
  IC50: 10 nM
Animal toxicity of 13a
  neurotoxicity: transient neurotoxicity was observed
[7]; Homo sapiens, SK-OV-3, SKOV, read-out: IC50
  IC50: 50 to 100 nM
[7]; SKOV3, 48 hours
  effective / active concentration: 0.1 µM

## COc1cc(/C=C\c2ccc(OC)c(NC(=O)OCCN3CCOCC3)c2)cc(OC)c1 [5b, (Z)-{5-[2-(3,5-Dimethoxy-phenyl)-vinyl]-2-methoxy-phenyl}-carbamic acid 2-morpholin-4-yl-ethyl ester, oxalate salt]
[1]
  water solubility (in words): high solubility
[1]; HCl salt, read-out: water solubility, x HCl
  solubility: 759000 µg/mL
[1]; free base, read-out: water solubility, Free base
  solubility: < 1000 µg/mL
[1]; oxalate salt, read-out: water solubility, x (COOH)2
  solubility: 5900 µg/mL
UCI101 cells [8]; 1 μM
  cell death / cell cycle arrest at 1 μM: not effective in inducing cell death or cell cycle arrest
UCI101 cells [8]; 3 μM
  cell death / cell cycle arrest at 3 μM: showed a significant activity
UCI101 cells [8]; 10 μM
  cell death / cell cycle arrest at 10 μM: nearly all cells have committed to cell death
UCI101 cells [8]; 10 μM 5b equivalent to 100 nM stilbene 4a
  fold less potent than stilbene 4a in vitro: 100
UCI101 cells [8]; 4a at 30, 100 nM, 5b at 1, 3, 10 μM
  cell cycle effect: induced similar cell cycle arrest as stilbene 4a
UCI101 cells [8]; 24 hours
  concentration inducing a subG0/1 (dead) population: 3 µM
[9]; 7 doses every 2-3 days
  tumor growth versus control mice: only compound that achieved statistical significance compared with control mice
[9]; 7 doses every 2-3 days, 5 mice in each group
  tumor growth suppression: about 40%
[9]; mouse, in vivo
  mouse weight: did not show any significant change
[4]; UCI101, from IC50
  fold less potent than stilbene 4a: about 100
[4]; UCI101, estimated
  IC50: ~3000 nM
MDA-MB231 cells
  microtubule pattern: completely disrupted microtubule formation
UCI101 cells [10]
  microtubule pattern: partial disruption of microtubules
[11]; 100 mg/kg by intraperitoneal injection
  tolerability: tolerated well without complication
[11]; 100 mg/kg ip
  persistence in circulation: stay in circulation longer than stilbene 4a
UCI101 cells [12]
  phospho-histone 3B positive cells: dramatic increase in positive cells
